In ChEMBL document CHEMBL3864142, “Allicin-inspired thiolated fluoroquinolones as antibacterials against ESKAPE pathogens” (2016):

Legend:
Format in all cases: functional
Pseudomonas aeruginosa [1] = assay: Antibacterial activity against Pseudomonas aeruginosa ATCC 15442 at 50 uM in presence of 10 uM ciprofloxacin by disc diffusion method
Staphylococcus aureus [2] = assay: Antibacterial activity against methicillin-resistant Staphylococcus aureus BAA-1747 at 25 uM in presence of 10 uM ciprofloxacin by disc diffusion method
Pseudomonas aeruginosa [3] = assay: Antibacterial activity against Pseudomonas aeruginosa ATCC 15442 at 25 uM in presence of 10 uM ciprofloxacin by disc diffusion method
Staphylococcus aureus [4] = assay: Antibacterial activity against methicillin-resistant Staphylococcus aureus BAA-1747 at 50 uM in presence of 10 uM ciprofloxacin by disc diffusion method
Klebsiella pneumoniae [5] = assay: Antibacterial activity against ESBL-producer Klebsiella pneumoniae K6 700603 at 25 uM in presence of 10 uM ciprofloxacin by disc diffusion method
Acinetobacter baumannii [6] = assay: Antibacterial activity against ciprofloxacin-resistant Acinetobacter baumannii BAA-1605 at 50 uM by disc diffusion method; conditions: read-out: DIZ
Enterobacter cloacae [7] = assay: Antibacterial activity against Enterobacter cloacae ATCC 23355 at 25 uM in presence of 10 uM ciprofloxacin by disc diffusion method
Klebsiella pneumoniae [8] = assay: Antibacterial activity against ESBL-producer Klebsiella pneumoniae K6 700603 at 50 uM in presence of 10 uM ciprofloxacin by disc diffusion method
Enterobacter cloacae [9] = assay: Antibacterial activity against Enterobacter cloacae ATCC 23355 at 50 uM by disc diffusion method; conditions: read-out: DIZ
Enterococcus faecium [10] = assay: Antibacterial activity against vancomycin-resistant Enterococcus faecium ATCC 700221 at 25 uM in presence of 10 uM ciprofloxacin by disc diffusion method
Klebsiella pneumoniae [11] = assay: Antibacterial activity against ESBL-producer Klebsiella pneumoniae K6 700603 at 50 uM by disc diffusion method; conditions: read-out: DIZ
Staphylococcus aureus [12] = assay: Antibacterial activity against methicillin-resistant Staphylococcus aureus BAA-1747 at 50 uM by disc diffusion method; conditions: read-out: DIZ
Acinetobacter baumannii [13] = assay: Antibacterial activity against ciprofloxacin-resistant Acinetobacter baumannii BAA-1605 at 50 uM in presence of 10 uM ciprofloxacin by disc diffusion method
Acinetobacter baumannii [14] = assay: Antibacterial activity against ciprofloxacin-resistant Acinetobacter baumannii BAA-1605 at 25 uM in presence of 10 uM ciprofloxacin by disc diffusion method
Enterococcus faecium [15] = assay: Antibacterial activity against vancomycin-resistant Enterococcus faecium ATCC 700221 at 50 uM by disc diffusion method; conditions: read-out: DIZ
Enterococcus faecium [16] = assay: Antibacterial activity against vancomycin-resistant Enterococcus faecium ATCC 700221 at 50 uM in presence of 10 uM ciprofloxacin by disc diffusion method
Pseudomonas aeruginosa [17] = assay: Antibacterial activity against Pseudomonas aeruginosa ATCC 15442 at 50 uM by disc diffusion method; conditions: read-out: DIZ
Enterobacter cloacae [18] = assay: Antibacterial activity against Enterobacter cloacae ATCC 23355 at 50 uM in presence of 10 uM ciprofloxacin by disc diffusion method

C=CCS[S+]([O-])CC=C (stereo not drawn) [ALLICIN]
diameter of the inhibition zone (DIZ) (Pseudomonas aeruginosa [1]): 27 mm
diameter of the inhibition zone (DIZ) (Staphylococcus aureus [2]): 25 mm
diameter of the inhibition zone (DIZ) (Pseudomonas aeruginosa [3]): 28 mm
diameter of the inhibition zone (DIZ) (Staphylococcus aureus [4]): 29 mm
diameter of the inhibition zone (DIZ) (Klebsiella pneumoniae [5]): 22 mm
zone of inhibition at 50 µM (Acinetobacter baumannii [6]): 24 mm
diameter of the inhibition zone (DIZ) (Enterobacter cloacae [7]): 31 mm
diameter of the inhibition zone (DIZ) (Klebsiella pneumoniae [8]): 24 mm
zone of inhibition at 50 µM (Enterobacter cloacae [9]): 15 mm
diameter of the inhibition zone (DIZ) (Enterococcus faecium [10]): 10 mm
zone of inhibition at 50 µM (Klebsiella pneumoniae [11]): 13 mm
zone of inhibition at 50 µM (Staphylococcus aureus [12]): 28 mm
diameter of the inhibition zone (DIZ) (Acinetobacter baumannii [13]): 25 mm
diameter of the inhibition zone (DIZ) (Acinetobacter baumannii [14]): 20 mm
zone of inhibition at 50 µM (Enterococcus faecium [15]): 18 mm
diameter of the inhibition zone (DIZ) (Enterococcus faecium [16]): 17 mm
zone of inhibition at 50 µM (Pseudomonas aeruginosa [17]): 0 mm
diameter of the inhibition zone (DIZ) (Enterobacter cloacae [18]): 31 mm
